According to US20060194800A1, “Pteridine derivatives as nitric oxide synthase activators” (University of Strathclyde, priority 2005, published 2006):

Tests used:
iNOS = target: T1, iNOS (Mus musculus, UniProt P29477); assay: Macrophage assay (iNOS), macrophages depleted of tetrahydrobiopterin by DAHP; assay type: cell-based; settings: 72 h; tested at 1 microM in macrophages; P = promotes NOS activity; read-out: iNOS effect *H155
T1 construct: stimulated macrophages that produce iNOS; endogenous in cells; host or cells: primary mouse macrophages (from femur), LPS-stimulated, DAHP-treated

rat pulmonary artery = assay: Rat pulmonary artery ring relaxation (endogenous tetrahydrobiopterin present); settings: rat pulmonary artery, normal or DAHP-treated
Method: Rings (5 mm long) of rat pulmonary artery and aorta, were supported on a pair of intraluminal wires at 1 gm tension for one hour and then contracted with their EC50 phenylephrine concentration, which for pulmonary artery was 3.6×10^−8 M (derived from preliminary experiments) and for aorta was 11.8×10^−8 M (from the previously published literature). The rings were then relaxed with carbachol (10 μM). If the relaxation to carbachol was >75%, then the tissues were used to generate dose responses by addition of tetrahydrobiopterin (BH4) or the analogues. Stock BH4 was stored at −20° C. and the dilutions were prepared using saline just before adding the drug into the bath. Solutions of analogues were stored at 4° C. Cumulatively increasing concentrations of the analogues were added to the bath and the extent of relaxation was measured when it had stabilised. Another ring from the same rat was treated in parallel with the solvent for the analogue. The solvent used was NH4OH. The results are shown graphically in FIGS. 1 and 2.

T1 sequence (P29477 whole entry): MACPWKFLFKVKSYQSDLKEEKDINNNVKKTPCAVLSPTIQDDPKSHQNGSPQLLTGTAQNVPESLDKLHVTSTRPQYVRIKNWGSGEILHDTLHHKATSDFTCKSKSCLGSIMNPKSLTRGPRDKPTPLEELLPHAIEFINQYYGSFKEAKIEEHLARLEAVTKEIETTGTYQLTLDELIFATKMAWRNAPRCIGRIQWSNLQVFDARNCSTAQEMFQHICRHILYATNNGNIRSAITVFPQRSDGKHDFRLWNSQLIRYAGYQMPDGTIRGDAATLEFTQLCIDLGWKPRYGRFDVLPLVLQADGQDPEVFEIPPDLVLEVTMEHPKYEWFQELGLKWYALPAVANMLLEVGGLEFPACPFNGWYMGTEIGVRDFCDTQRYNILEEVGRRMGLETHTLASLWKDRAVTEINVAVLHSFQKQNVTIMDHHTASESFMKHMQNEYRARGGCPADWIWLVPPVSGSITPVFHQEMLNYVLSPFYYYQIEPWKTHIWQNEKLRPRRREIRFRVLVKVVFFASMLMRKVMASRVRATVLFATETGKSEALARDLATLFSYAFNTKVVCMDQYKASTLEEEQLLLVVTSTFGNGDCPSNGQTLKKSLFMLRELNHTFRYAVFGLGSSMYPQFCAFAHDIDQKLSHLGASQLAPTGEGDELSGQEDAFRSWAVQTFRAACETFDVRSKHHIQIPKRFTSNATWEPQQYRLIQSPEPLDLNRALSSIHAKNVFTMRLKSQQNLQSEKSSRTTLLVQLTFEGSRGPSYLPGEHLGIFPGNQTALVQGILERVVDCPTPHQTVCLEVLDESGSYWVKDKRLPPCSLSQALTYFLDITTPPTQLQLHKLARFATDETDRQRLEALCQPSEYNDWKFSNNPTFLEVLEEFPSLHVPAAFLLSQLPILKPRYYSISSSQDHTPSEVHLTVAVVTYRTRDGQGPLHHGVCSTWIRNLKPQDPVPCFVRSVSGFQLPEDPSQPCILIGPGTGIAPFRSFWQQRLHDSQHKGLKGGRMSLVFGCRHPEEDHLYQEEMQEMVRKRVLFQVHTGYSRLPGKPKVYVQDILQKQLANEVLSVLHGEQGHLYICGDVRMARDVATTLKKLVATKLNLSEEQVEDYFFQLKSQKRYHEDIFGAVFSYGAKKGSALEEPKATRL

SMILES | activation at 1 µM (iNOS) [%] | concentrations of tetrahydrobiopterin causing contraction (rat pulmonary artery)
CCC1(CC)Nc2nc(N)[nH]c(=O)c2N=C1CO [wsg1014, 2-Amino-7,7-diethyl-6-hydroxymethyl-7,8-dihydro-3H-pteridin-4-one] | < 20 | 
CC1Nc2nc(N)[nH]c(=O)c2NC1C (stereo not shown) [wsg1010, 2-Amino-6,7-dimethyl-4-oxo-3,4,5,6,7,8-hexahydro-pteridin-5-ium Cl-] | 20 to 50 | 
Nc1nc2ncc(C(=O)O)nc2c(=O)[nH]1 [wsg1005, 2-Amino-4-oxo-3,4-dihydro-pteridine-6-carboxylic acid] | 20 to 50 | 
C[C@H](O)[C@H](O)[C@H]1CNc2nc(N)[nH]c(=O)c2N1 [tetrahydrobiopterin, reference compound] |  | above 3 μM
CC1=Nc2c(nc(N)[nH]c2=O)NC1C (stereo not shown) [wsg1011, 2-Amino-6,7-dimethyl-4-oxo-3,4,7,8-tetrahydro-pteridin-8-ium Cl-] | 20 to 50 | 
CC12CCCCC1=Nc1c(nc(N)[nH]c1=O)N2 (stereo not shown) [wsg1007, 2-Amino-9a-methyl-6,7,8,9,9a,10-hexahydro-3H-benzo[g]pteridin-4-one] | 20 to 50 | 
CC1=Nc2c(nc(N)[nH]c2=O)OC1(C)C [wsg1019, 2-Amino-6,7,7-trimethyl-3,7-dihydro-pyrimido[4,5-b][1,4]oxazin-4-one] | < 20 | 

The next lines start with results.

activation at 1 µM (iNOS) [%] | SMILES | concentrations of tetrahydrobiopterin causing contraction (rat pulmonary artery)
20 to 50 | CC1(C)Nc2nc(N)[nH]c(=O)c2N=C1CO [wsg1004, 2-Amino-6-hydroxymethyl-7,7-dimethyl-7,8-dihydro-3H-pteridin-4-one] | 
20 to 50 | CC1(CCc2ccccc2)Nc2nc(N)[nH]c(=O)c2N=C1CO (stereo not shown) [wsg1018, 2-Amino-6-hydroxymethyl-7-methyl-7-phenethyl-7,8-dihydro-3H-pteridin-4-one] | 
20 to 50 | CC1(C)Nc2nc(N)[nH]c(=O)c2N=C1Cc1ccccc1 [wsg1012, 2-Amino-6-benzyl-7,7-dimethyl-7,8-dihydro-3H-pteridin-4-one] | 
20 to 50 | CC12CCCC1(S(=O)(=O)O)Nc1c(nc(N)[nH]c1=O)N2 (stereo not shown) [wsg1008, 6-Amino-3a-methyl-8-oxo-1,2,3,3a,4,7,8,9-octahydro-4,5,7,9-tetraaza-cyclopenta[b]naphthalene-9a-sulfonic acid] | 
20 to 50 | CCC1=Nc2c(nc(N)[nH]c2=O)NC1(C)C [wsg1006, 2-Amino-6-ethyl-7,7-dimethyl-7,8-dihydro-3H-pteridin-4-one] | 
20 to 50 | Cc1nc2nc(N)[nH]c(=O)c2nc1C [wsg1009, 2-Amino-6,7-dimethyl-3H-pteridin-4-one] | 
20 to 50 | Nc1nc2ncc(C=O)nc2c(=O)[nH]1 [wsg1003, 2-Amino-4-oxo-3,4-dihydro-pteridine-6-carbaldehyde] | 
> 50 | CC1(C)Nc2nc(N)[nH]c(=O)c2N=C1/C=C/c1ccc(Cl)cc1 [wsg1017, 2-Amino-6-[2-(4-chloro-phenyl)-vinyl]-7,7-dimethyl-7,8-dihydro-3H-pteridin-4-one] | 
< 20 | CC1(CCc2ccccc2)Nc2nc(N)[nH]c(=O)c2N=C1C=O (stereo not shown) [wsg1016, 2-Amino-7-methyl-4-oxo-7-phenethyl-3,4,7,8-tetrahydro-pteridine-6-carbaldehyde] | 
